Reference: patent US6548268B1, “Chromogenic medium for detecting Staphylococcus aureus” (priority 1999, dated 2003)

Tests used:
Staphylococcus aureus [1] = details: chromogenic agent in culture medium
Description: (§1) The term “chromogenic agent” is understood to denote a compound which changes color in the presence of a specific strain, in particular under the effect of the enzymatic system of said strain.

Streptococcus strains = details: chromogenic agent in culture medium; a large number of Streptococcus strains
Description: as §1

Staphylococcus aureus [2] = test: Growth inhibition in the culture medium; format: cell-based; details: deferoxamine in the culture medium
Description: The concentration used will preferably be between 0.010 and 0.100 g/l.

Compound	Staining in the presence of S. aureus (Staphylococcus aureus [1])	Staining of Streptococcus strains (Streptococcus strains)	Inhibition of growth of Staphylococcus aureus (Staphylococcus aureus [2])
5-bromo-4-chloro-3-indoxyl glucoside	without staining	stains blue	
CC(=O)N(O)CCCCCNC(=O)CCC(=O)N(O)CCCCCNC(=O)CCC(=O)N(O)CCCCCN [deferoxamine]			without inhibiting
5-bromo-4-chloro-3-indoxyl glucuronide	negative		
5-bromo-4-chloro-3-indoxyl galactoside	negative		
5-bromo-6-chloro-3-indoxyl phosphate	mauve staining		
